In patent publication US8614227B2, “Salt and solvates of a tetrahydroisoquinoline derivative” (Spinifex Pharmaceuticals Pty Ltd, priority 2010, dated 2013):
Where two headings read alike, the source gives them in different places.

How the values were obtained:
[1] = Storage of amine salts at elevated humidity (deliquescence); assay type: physicochemical
Procedure: The tromethamine salt deliquesced at 25° C./94% RH. As a result, neither of these amine salts were suitable for pharmaceutical development.

[2] = Gravimetric vapour sorption (GVS); assay type: physicochemical
Procedure: Sorption isotherms were obtained using a Hiden IGASorp moisture sorption analyzer, controlled by CFRSorp software. The sample temperature was maintained at 25° C. by a Huber re-circulating water bath. The humidity was controlled by mixing streams of dry and wet nitrogen, with a total flow rate of 250 mL·min^−1. The relative humidity was measured by a calibrated Vaisala RH probe (dynamic range of 0-95% RH), located near the sample. The weight change, (mass relaxation) of the sample as a function of % RH was constantly monitored by the microbalance (accuracy ±0.001 mg).
Typically 10-20 mg of sample was placed in a tared mesh stainless steel basket under ambient conditions. The sample was loaded and unloaded at 40% RH and 25° C. (typical room conditions).
A moisture sorption isotherm was performed as outlined below (2 scans giving 1 complete cycle). The standard isotherm was performed at 25° C. at 10% RH intervals over a 0-90% RH range.
The software uses a least squares minimization procedure together with a model of the mass relaxation, to predict an asymptotic value. The measured mass relaxation value must be within 5% of that predicted by the software, before the next RH value is selected. The minimum equilibration time was set to 1 hour and the maximum to 4 hours.
The sample was recovered after completion of the isotherm and re-analyzed by XRPD.

pKa of Compound 1 = assay type: physicochemical
[3] = dog, in vivo, po, 10 mg/kg
Procedure: (§1) The study was designed to compare the PK profiles of the following four forms of Compound 1 administered as single oral capsules in fasted state. […] There was a washout period of 4 days between dosing. The blood samples were collected from each animal at predetermined times on the study Days 1, 4, 8 and 11. The plasma was analyzed for Compound 1 by a validated HPLC-MS/MS assay.
(§2) Descriptive PK parameters were determined by standard model independent methods (Gibaldi and Perrier, 1982) based on the individual plasma concentration-time data. Plasma concentrations were rounded to 3 significant figures. Plasma samples with concentrations below the quantifiable assay limit (BQL<2.00 ng/mL) were assigned values of zero for mean calculations. For PK calculations, BQL was set to zero from the pre-dose time up to the time of the first quantifiable concentration and thereafter was set as missing. Nominal time points were used for all calculations. • Cmax is the observed maximum plasma concentration after dosing. • Tmax is the time to reach Cmax. • T1/2 is apparent half-life calculated by ln(2)/λ where λ is the rate constant fix the log-linear portion of the terminal phase. A minimum of three values in the post-distribution phase of the plasma concentration-time curve is required for calculation of X. • AUC(0-T) is the area under the plasma concentration-time curve from time zero to the time of the last measurable plasma concentration determined using the linear trapezoidal rule. • AUC(0-inf) is the area under the plasma concentration-time curve from time zero to infinity. It is calculated by summing AUC(0-T) and the extrapolated area from the T to infinity.
(§3) PK analyses were performed by noncompartmental analysis using model 200 in WinNonlin Professional 6.1 (Pharsight Corp., Mountain View, Calif.).

in vivo = details: male, beagle, dog, po, 10 mg/kg
Procedure: as §1, §2, §3

Compound: COc1ccc2c(c1OCc1ccccc1)C[C@@H](C(=O)O)N(C(=O)C(c1ccccc1)c1ccccc1)C2.NC(CO)(CO)CO [tromethamine salt]
- behaviour on storage at 25° C./94% RH [1]: deliquesced

Compound: COc1ccc2c(c1OCc1ccccc1)C[C@@H](C(=O)[O-])N(C(=O)C(c1ccccc1)c1ccccc1)C2.[Na+] [material from acetonitrile (MeCN)]
- GVS weight gained by 40% RH ([2]; from 0% RH to 40% RH): 6%
- GVS weight change when taken up to 90% RH ([2]; from 40% RH to 90% RH, 25° C.): about 17%
- GVS total weight drop ([2]; from 90% RH to 0% RH): 19%
- GVS weight at 0% RH ([2]; taken down to 0% RH, 25° C.): −2%

Compound: COc1ccc2c(c1OCc1ccccc1)C[C@@H](C(=O)O)N(C(=O)C(c1ccccc1)c1ccccc1)C2 [Compound 1, (S)-2-(diphenylacetyl)-1,2,3,4-tetrahydro-6-methoxy-5-(phenylmethoxy)-3-isoquinoline carboxylic acid]
- pKa (pKa of Compound 1): ~3.86
- Plasma concentration of Compound 1, 0.25 h [3]: BQL
- Plasma concentration of Compound 1, 0.5 h [3]: BQL
- Plasma concentration of Compound 1, 0.75 h [3]: BQL
- Plasma concentration of Compound 1, 12 h [3]: BQL
- Plasma concentration of Compound 1, 24 h [3]: BQL
- Plasma concentration of Compound 1, Predose [3]: BQL
- Plasma concentration of Compound 1, Predose ([3]; male, beagle): 0.00 ng/mL
- Plasma concentration of Compound 1, 24 h ([3]; male, beagle, 24 h): 0.00 ng/mL
- AUC(0-inf) (in vivo; Mean AUC(0-inf)): 680 ± 412 ng·h/mL
- half-life (in vivo; Mean harmonic T1/2): 2.11 ± 0.115 h
- half-life (in vivo; T1/2): 2.18 h
- Tmax (in vivo; Tmax): 1 h
- Cmax (in vivo; mean Cmax): 294 ± 238 ng/mL
- Tmax (in vivo; median Tmax): 2 h
